Test results taken from patent publication US11208397B2, “Small molecule antagonists of sumo related modification of CRMP2 and uses thereof” (Arizona Board of Regents on Behalf of the University of …, priority 2017, dated 2021).
Entries after “also recorded” stand apart in the source; their conditions may differ. Read-outs that look alike come from different tables or passages of the source.

Columns and labels:
[1] = molecular target: hERG (Homo sapiens, UniProt Q12809); settings: 20 μM, hEK293 cells; listed as ReN 194
[2] = molecular target: CRMP2 (Mus musculus, UniProt O08553); test: 1D 1H STD NMR binding to CRMP2
Procedure: 1D ^1H STD NMR showing on-resonance spectrum for CRMP2 with probe AZ194. Asterisks correspond to protons. […] NMR was performed on an AVANCE III 400 Mhz specrometer equipped with a Bruker PABBO 400S1 probe and SampleJet carousel that can hold up to 96 NMR tubes. The on-resonance excitation was set at 0.81 ppm (to irradiate protein methyl groups) and off-resonance set to 30 ppm. A 15 ms spin-lock was used to suppress the protein signal, followed by the double PFG spin echo to remove residual water signal. Spectra processing and analysis were performed with Topspin3.1 and MestReNova 7.1.

[3] = test system: TTX-S NaV1.7 currents; format: cell-based, human
[4] = molecular target: Ubc9 (Homo sapiens, UniProt P63279); test: 1D 1H STD NMR binding to Ubc9
Sequence of Ubc9 (P63279 whole entry, species assumed): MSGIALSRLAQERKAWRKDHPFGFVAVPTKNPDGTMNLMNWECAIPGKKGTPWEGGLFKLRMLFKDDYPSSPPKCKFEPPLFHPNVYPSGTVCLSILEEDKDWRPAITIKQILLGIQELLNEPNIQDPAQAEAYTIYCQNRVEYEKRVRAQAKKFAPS

[5] = test system: spared nerve injury (SNI) rats; test: Spared nerve injury (SNI) model of neuropathic pain; format: in vivo, rat
Procedure: FIG. 4: AZ194 reduces spared nerve injury (SNI) induced nociceptive behaviors. Rats received spared nerve injury (SNI) on the left hind paw. […] Right panel: Area under the curve (AUC), using the trapezoid method, for PWT (summary for data shown in the time course on the left) are shown. *p<0.05, one-way analysis of variance with Dunnett's post hoc analysis. Error bars represent mean±s.e.m.
AZ194 was evaluated for efficacy in the spared nerve injury (SNI) model (see, e.g., Decosterd I, & Woolf C J (2000) Pain 87: 149-158) of neuropathic pain. […] Such experiments also determined the AUC to assess effects over the full experimental duration.
Under isoflurane anesthesia (5% induction, 2.5% maintenance in 2 L/min air), skin on the lateral surface of the left hind thigh was incised. The biceps femoris muscle was bluntly dissected to expose the three terminal branches of the sciatic nerve (see, e.g., Decosterd I, & Woolf C J (2000) Pain 87: 149-158). Briefly, the common peroneal and tibial branches were tightly ligated with 4-0 silk and axotomized 2.0 mm distal to the ligation. Sham animals underwent the same operation; however the nerves were exposed and not ligated. Closure of the incision was made in two layers. The muscle was sutured once with 5-0 absorbable suture and skin was auto-clipped. Animals were allowed to recover for 5-7 days before any testing.

[6] = test system: NaV1.7; format: cell-based, rat
[7] = test system: other NaV1.x channels; test: Whole-cell patch clamp, other NaV1.x channels; format: cell-based
[8] = molecular target: T1, CaV2.2 (Rattus norvegicus, UniProt Q02294); test: Peak CaV2.2 currents in DRGs; format: cell-based; settings: 20 μM
T1 construct: endogenous in cells; host or cells: DRG neurons
T1 sequence (Q02294 whole entry): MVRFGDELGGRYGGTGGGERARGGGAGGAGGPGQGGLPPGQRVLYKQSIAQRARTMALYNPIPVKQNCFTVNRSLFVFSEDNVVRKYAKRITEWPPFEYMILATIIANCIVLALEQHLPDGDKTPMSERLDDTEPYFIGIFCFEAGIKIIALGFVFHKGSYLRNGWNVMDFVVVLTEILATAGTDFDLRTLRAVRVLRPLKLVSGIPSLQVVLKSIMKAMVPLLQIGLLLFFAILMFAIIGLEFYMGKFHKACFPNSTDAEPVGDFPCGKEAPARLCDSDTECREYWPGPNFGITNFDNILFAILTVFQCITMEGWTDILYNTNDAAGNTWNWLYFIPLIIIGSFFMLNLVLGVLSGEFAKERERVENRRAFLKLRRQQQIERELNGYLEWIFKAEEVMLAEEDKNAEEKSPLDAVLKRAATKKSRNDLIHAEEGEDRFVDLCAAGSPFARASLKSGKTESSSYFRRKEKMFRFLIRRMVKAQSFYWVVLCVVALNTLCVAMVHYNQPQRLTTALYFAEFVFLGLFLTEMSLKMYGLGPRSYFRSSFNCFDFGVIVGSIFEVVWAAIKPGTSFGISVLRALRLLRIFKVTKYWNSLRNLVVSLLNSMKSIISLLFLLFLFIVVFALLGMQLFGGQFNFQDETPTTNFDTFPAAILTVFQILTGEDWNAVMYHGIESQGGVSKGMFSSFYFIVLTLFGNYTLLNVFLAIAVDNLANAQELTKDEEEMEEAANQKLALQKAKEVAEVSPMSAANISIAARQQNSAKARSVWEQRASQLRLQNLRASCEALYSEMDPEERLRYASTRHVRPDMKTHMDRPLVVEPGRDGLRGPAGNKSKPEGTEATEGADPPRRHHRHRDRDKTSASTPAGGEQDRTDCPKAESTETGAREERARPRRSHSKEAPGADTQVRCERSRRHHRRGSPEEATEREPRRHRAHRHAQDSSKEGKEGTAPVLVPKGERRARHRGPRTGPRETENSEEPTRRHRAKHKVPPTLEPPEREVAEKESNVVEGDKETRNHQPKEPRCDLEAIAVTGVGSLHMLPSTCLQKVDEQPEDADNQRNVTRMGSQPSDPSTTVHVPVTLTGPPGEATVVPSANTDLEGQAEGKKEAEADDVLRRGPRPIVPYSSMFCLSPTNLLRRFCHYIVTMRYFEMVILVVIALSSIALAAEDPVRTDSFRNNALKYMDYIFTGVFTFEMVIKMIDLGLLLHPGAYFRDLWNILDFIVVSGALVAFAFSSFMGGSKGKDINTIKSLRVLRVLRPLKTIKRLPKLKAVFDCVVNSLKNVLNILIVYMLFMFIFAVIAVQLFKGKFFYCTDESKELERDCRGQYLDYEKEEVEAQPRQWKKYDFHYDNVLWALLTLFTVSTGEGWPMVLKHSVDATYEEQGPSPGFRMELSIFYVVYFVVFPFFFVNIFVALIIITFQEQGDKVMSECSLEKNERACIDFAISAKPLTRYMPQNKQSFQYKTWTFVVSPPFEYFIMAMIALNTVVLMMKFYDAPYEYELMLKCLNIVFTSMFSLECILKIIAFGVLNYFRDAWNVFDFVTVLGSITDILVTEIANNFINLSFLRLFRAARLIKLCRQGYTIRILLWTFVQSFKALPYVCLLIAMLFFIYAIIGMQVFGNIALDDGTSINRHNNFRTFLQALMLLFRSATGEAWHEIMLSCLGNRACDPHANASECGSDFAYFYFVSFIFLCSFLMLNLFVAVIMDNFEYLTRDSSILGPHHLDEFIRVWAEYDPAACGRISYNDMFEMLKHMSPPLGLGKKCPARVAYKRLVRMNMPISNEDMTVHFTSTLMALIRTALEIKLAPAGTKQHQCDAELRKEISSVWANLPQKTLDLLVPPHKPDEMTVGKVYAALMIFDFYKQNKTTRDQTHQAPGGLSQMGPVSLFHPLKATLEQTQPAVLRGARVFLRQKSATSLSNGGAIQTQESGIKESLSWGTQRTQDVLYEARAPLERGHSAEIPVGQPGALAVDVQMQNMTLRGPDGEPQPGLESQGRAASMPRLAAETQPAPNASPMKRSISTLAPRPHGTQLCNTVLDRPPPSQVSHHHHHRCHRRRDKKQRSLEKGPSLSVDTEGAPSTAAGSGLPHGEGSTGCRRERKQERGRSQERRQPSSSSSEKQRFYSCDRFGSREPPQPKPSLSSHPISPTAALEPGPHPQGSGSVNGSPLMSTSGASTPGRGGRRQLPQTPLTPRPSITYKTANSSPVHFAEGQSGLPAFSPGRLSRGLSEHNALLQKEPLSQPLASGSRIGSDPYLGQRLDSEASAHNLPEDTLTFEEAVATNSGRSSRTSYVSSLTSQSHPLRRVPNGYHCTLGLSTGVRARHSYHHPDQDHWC
T1 sequence (P54287 whole entry partner): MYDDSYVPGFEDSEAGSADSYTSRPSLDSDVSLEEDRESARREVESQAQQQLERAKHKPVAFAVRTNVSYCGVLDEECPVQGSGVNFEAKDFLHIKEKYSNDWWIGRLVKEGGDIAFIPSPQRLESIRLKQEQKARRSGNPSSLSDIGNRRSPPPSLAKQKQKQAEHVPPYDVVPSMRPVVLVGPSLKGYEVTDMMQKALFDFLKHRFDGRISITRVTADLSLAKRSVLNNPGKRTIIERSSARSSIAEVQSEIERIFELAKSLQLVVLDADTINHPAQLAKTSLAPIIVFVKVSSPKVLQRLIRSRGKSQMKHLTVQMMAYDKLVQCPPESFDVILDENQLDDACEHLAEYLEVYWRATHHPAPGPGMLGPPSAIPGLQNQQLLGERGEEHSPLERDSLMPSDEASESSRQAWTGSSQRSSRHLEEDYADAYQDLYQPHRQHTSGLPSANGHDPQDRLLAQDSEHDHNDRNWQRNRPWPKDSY
T1 sequence (P54290 25-1091 partner): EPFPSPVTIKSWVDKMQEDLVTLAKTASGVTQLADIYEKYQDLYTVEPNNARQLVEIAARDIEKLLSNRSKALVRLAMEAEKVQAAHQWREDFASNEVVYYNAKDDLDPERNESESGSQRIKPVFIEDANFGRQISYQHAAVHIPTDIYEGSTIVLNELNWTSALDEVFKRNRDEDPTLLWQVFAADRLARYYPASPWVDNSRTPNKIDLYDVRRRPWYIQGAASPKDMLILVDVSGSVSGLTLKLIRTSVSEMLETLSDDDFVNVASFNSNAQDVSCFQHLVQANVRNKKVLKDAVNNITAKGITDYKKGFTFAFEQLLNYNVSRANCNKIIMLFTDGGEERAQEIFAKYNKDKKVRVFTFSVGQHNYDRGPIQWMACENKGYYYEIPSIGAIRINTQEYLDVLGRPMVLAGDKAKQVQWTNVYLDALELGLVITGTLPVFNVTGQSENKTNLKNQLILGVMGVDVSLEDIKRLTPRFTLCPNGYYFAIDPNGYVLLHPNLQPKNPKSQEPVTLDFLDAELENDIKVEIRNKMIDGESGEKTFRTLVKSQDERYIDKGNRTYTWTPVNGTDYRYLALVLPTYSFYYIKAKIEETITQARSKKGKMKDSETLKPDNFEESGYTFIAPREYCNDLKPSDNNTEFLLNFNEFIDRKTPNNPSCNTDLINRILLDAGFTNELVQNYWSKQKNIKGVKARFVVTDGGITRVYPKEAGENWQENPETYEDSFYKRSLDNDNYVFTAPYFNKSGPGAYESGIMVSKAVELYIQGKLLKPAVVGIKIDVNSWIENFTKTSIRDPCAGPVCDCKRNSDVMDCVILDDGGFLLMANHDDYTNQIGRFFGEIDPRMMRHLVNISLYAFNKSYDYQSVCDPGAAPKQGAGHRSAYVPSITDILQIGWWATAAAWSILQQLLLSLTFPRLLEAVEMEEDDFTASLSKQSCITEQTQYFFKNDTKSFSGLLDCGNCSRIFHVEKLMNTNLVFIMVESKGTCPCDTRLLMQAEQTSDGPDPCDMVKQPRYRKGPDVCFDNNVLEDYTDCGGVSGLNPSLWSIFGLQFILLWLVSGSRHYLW

[9] = test system: NaV1.7 channels; test: Sodium currents of sensory neurons incubated with compound for indicated times (direct block test); format: cell-based; parameters: dose or concentration left out as unconfirmed; settings: primary rat sensory neurons
Procedure: Primary rat sensory neurons were incubated for the indicated times with DMSO 0.1% or […] AZ194. Left: Bar graphs represent normalized peak sodium current density±s.e.m. from at least 14 cells per condition from 3 separate rats.*p<0.05, Kruskal-Wallis test. Middle: current voltage relationship of sodium currents from rat sensory neurons incubated for the indicated times with DMSO 0.1% or […] AZ194. Right: biophysical properties of inactivation were not altered by AZ194 at any of the time points versus control.
Primary rat sensory neurons were incubated for the indicated times with DMSO 0.1% or 5 mM AZ194.

[10] = test system: Penk mRNA; test: Penk (proenkephalin) mRNA expression in cultured DRG neurons; format: cell-based; settings: exposure 6 hr, cultured rat DRG neurons
[11] = test system: NaV channels; test: Frequency (use)-dependent block of sodium current in DRG neurons; format: cell-based; settings: 5 μM, thirty test pulses at 10 Hz, listed as ReN 206
Procedure: Control DRG neurons were treated with 0.03% DMSO (squares). Thirty, identical test pulses were applied at 10 Hz. The difference in available current was calculated by dividing the peak current at any given pulse (pulseN) by the peak current in response to the initial pulse (pulsei). Data are from 5-6 cells per condition.
The ability to block Na^+ currents in an activity- or use-dependent manner is a useful property for drugs since it allows for preferential decreases in sodium channel availability during high—(i.e., hyperexcitable ‘pain’ neurons) but not low-frequency firing.

SMILES	effect on hERG K+ currents [1]	binding to CRMP2 (STD NMR) [2]	reduction of TTX-S NaV1.7 currents [3] [%]	binding to Ubc9 (STD NMR) [4]	paw withdrawal thresholds (PWTs) ([5]; intrathecal injection 0.5 μg/5 μl)	area under the curve (AUC) for PWT ([5]; spinal administration, full experimental duration)	inhibition of NaV1.7 (concentration-response curve) [6]	effect on other NaV1.x channels [7]	effect on other NaV1.x channels ([7]; highest concentration of 20 μM)	effect on peak CaV2.2 currents [8]	effect on peak CaV2.2 currents ([8]; listed as ReN 194)	biophysical properties of inactivation ([9]; any time point versus control)	direct block of NaV1.7 channels (normalized peak sodium current density) ([9]; indicated incubation times)	Penk mRNA (proenkephalin), normalized to L27 ribosomal RNA [10]	frequency (use)-dependent decrease in current amplitude [11]
COc1cc(C(=O)N2CCC(c3nc4ccccc4n3Cc3cccc(F)c3)CC2)ccc1OCc1cccc(F)c1 [AZ194, (4-(1-(3-fluorobenzyl)-1H-benzo[d]imidazol-2-yl)piperidin-1-yl)(4-((3-fluorobenzyl)oxy)-3-methoxyphenyl)methanone]	did not affect	binds	~66	No binding was observed	significantly increased; also recorded: significantly reversed	reversal of mechanical allodynia	nanomolar potency	not affected	no inhibition	no inhibition	did not affect	not altered	does not directly block	upregulates; also recorded: increased	–
Fc1ccc(Oc2ccc(CN3CCC(c4nc5ccccc5[nH]4)CC3)cc2)cc1 [AZ206, 2-(1-(4-(4-fluorophenoxy)benzyl)piperidin-4-yl)-1H-benzo[d]imidazole]	–	–	–	–	–	–	–	–	–	–	–	–	–	–	use-dependent inhibitor; also recorded: decrease in current amplitude
COc1cc(C(=O)N2CCC(c3nc4ccccc4n3Cc3cccc(F)c3)CC2)ccc1OCc1cccc(F)c1 [drawing 20]	–	–	–	–	–	–	–	–	–	–	–	–	–	upregulation	–
